Measurements published in article PMC10208956, “Microbial peptides activate tumour-infiltrating lymphocytes in glioblastoma” (Nature, 2023).

Test system: isolated TIL-derived CD4+ TCCs
Assay: All isolated TCCs tested against SIN3A* peptide: proliferation (SI)
Type: cell-based, human
Conditions: for SI: proliferation, sheet 2b

## Ac-QPVEFNHAIHYVN-NH2 [SIN3A*]
TCC4
  SI: 326.128
TCC11
  SI: 238.815
TCC12
  SI: 287.573
TCC13
  SI: 453.401
TCC15
  SI: 28.5845
TCC16
  SI: 23.5776
TCC20
  SI: 244.524
TCC29
  SI: 34.8583
TCC31
  SI: 128.595
TCC32
  SI: 5.805
TCC33
  SI: 313.375
TCC35
  SI: 7.243
TCC37
  SI: 2.779
TCC38
  SI: 611.635
TCC43
  SI: 28.9619
TCC47
  SI: 29.6013
TCC52
  SI: 25.0598
TCC56
  SI: 22.816
TCC57
  SI: 3.669
TCC60
  SI: 23.5877
TCC63
  SI: 17.3519
TCC67
  SI: 7.121
TCC68
  SI: 7.155
TCC72
  SI: 5.137
TCC75
  SI: 11.5536
TCC76
  SI: 2.574
TCC88
  SI: 34.5634
TCC89
  SI: 2.064
TCC90
  SI: 56.5299
TCC91
  SI: 28.9154
TCC92
  SI: 23.8373
TCC93
  SI: 31.4988
TCC94
  SI: 41.408
TCC96
  SI: 17.6927
TCC97
  SI: 56.4388
TCC98
  SI: 67.9438
TCC99
  SI: 7.081
TCC101
  SI: 5.504
TCC102
  SI: 3.298
TCC103
  SI: 23.6756
TCC104
  SI: 20.3791
TCC107
  SI: 14.7872
TCC109
  SI: 67.7177
TCC110
  SI: 38.4196
TCC111
  SI: 16.0477
TCC112
  SI: 3.861
TCC113
  SI: 9.948
TCC114
  SI: 19.6549
TCC115
  SI: 9.682
TCC116
  SI: 36.7042
TCC118
  SI: 2.382
TCC120
  SI: 8.436
TCC121
  SI: 46.4714
TCC124
  SI: 44.5013
TCC126
  SI: 30.498
TCC127
  SI: 40.4213
TCC128
  SI: 20.9837
TCC129
  SI: 2.6751
TCC130
  SI: 24.2362
TCC132
  SI: 2.2794
TCC133
  SI: 8.094
TCC134
  SI: 2.175
TCC135
  SI: 13.0838
TCC137
  SI: 37.685
TCC138
  SI: 0.96
TCCs isolated from SIN3A*-stimulated TILs, 3 days, Fig. 2b
  CD4+ TCCs that responded by proliferation or production of IFNγ: 70 out of 124
